Laboratory results reported in patent publication US6479550B1, “α-sulfenimino acid derivatives” (priority 1999, dated 2002).

What was measured:
Plasmopara viticola = experiment: D-1: Action against Plasmopara viticola on vines (residual-protective and residual-curative action); format: in vivo; conditions: vine seedlings, spray mixture 0.02% active ingredient; evaluated after 6 days at 95-100% relative humidity and 20° C.
Description: D-1: Action against Plasmopara viticola on Vines a) Residual-protective Action
Vine seedlings are sprayed at the 4- to 5-leaf stage with a spray mixture (0.02% active ingredient) prepared from a wettable powder formulation of the test compound. After 24 hours, the treated plants are infected with a sporangia suspension of the fungus. Fungus infestation is evaluated after incubation for 6 days at 95-100% relative humidity and 20° C. […]
b) Residual-curative Action
Vine seedlings are infected at the 4- to 5-leaf stage with a sporangia suspension of the fungus. After incubation for 24 hours in a humidity chamber at 95-100% relative humidity and 20° C., the infected plants are dried and sprayed with a spray mixture (0.02% active ingredient) prepared from a wettable powder formulation of the test compound. After the spray coating has dried, the treated plants are placed in the humidity chamber again. Fungus infestation is evaluated 6 days after infection.

Phytophthora [1] = experiment: D-2: Action against Phytophthora on tomato plants (residual-protective and systemic action); format: in vivo; conditions: spray mixture 0.02% active ingredient, sprayed or watered, evaluated 4-5 days after infection at 90-100% relative humidity and 20° C.
Description: D-2: Action Against Phytophthora on Tomato Plants
(§1) a) Residual-protective Action
(§2) After a cultivation period of 3 weeks, tomato plants are sprayed with a spray mixture (0.02% active ingredient) prepared from a wettable powder formulation of the test compound. After 48 hours, the treated plants are infected with a sporangia suspension of the fungus. Fungus infestation is evaluated after incubation of the infected plants for 5 days at 90-100% relative humidity and 20° C.
as §2, with “watered” for “sprayed”, “ingredient based on the volume of the soil)” for “ingredient)”, “compound. […]” for “compound.”, “96” for “48”, “4” for “5”

Phytophthora [2] = experiment: D-3: Action against Phytophthora on potato plants (residual-protective and systemic action); format: in vivo; conditions: potato plants (Bintje variety), spray mixture 0.02% active ingredient, sprayed or watered; evaluated after 4 days at 90-100% relative humidity and 20° C.
Description: D-3: Action Against Phytophthora on Potato Plants
as §1
(§3) 2-3 week old potato plants (Bintje variety) are sprayed with a spray mixture (0.02% active ingredient) prepared from a wettable powder formulation of the test compound. After 48 hours, the treated plants are infected with a sporangia suspension of the fungus. Fungus infestation is evaluated after incubation of the infected plants for 4 days at 90-100% relative humidity and 20° C.
as §3, with “watered” for “sprayed”, “ingredient based on the volume of the soil)” for “ingredient)”, “compound. […]” for “compound.”

| SMILES | Fungus infestation (fungicidal action against Plasmopara viticola on vines) (Plasmopara viticola) | melting point | Fungus infestation (action against Phytophthora on tomato plants) (Phytophthora [1]) | Fungus infestation (fungicidal action against Phytophthora on potatoes) (Phytophthora [2]) |
| --- | --- | --- | --- | --- |
| COc1ccc(CCNC(=O)C(=NSC)c2ccc(-c3ccc(C)cc3)cc2)cc1OC [Compound 11.171, 2-[4-(4-methyl-phenyl)-phenyl]-N-[2-(3,4-di-methoxy-phenyl)-ethyl]-2-methylthioimino-acetamide] | completely inhibit fungal infestation | 40 to 47 °C |  |  |
| COc1ccc(CCNC(=O)C(=NSC)c2ccc(-c3ccc(C(C)(C)C)cc3)cc2)cc1OC [Compound 11.351, 2-[4-(4-tert.-butyl-phenyl)-phenyl]-N-[2-(3,4-di-methoxy-phenyl)-ethyl]-2-methylthioimino-acetamide] | completely inhibit fungal infestation | 45 to 52 °C |  |  |
| C#CCOc1ccc(CCNC(=O)C(=NSC)c2ccc(Cl)cc2)cc1OC [Compound 14.001, 2-(4-chloro-phenyl)-N-[2-(3-methoxy-4-prop-2-ynyloxy-phenyl)-ethyl]-2-methylthioimino-acetamide] | completely inhibit fungal infestation |  | completely inhibit fungal infestation | completely inhibit fungal infestation |
| C#CCOc1ccc(CCNC(=O)C(=NSC)c2ccc(Cl)c(Cl)c2)cc1OC [Compound 14.011, 2-(3,4-dichloro-phenyl)-N-[2-(3-methoxy-4-prop-2-ynyloxy-phenyl)-ethyl]-2-methylthioimino-acetamide] | completely inhibit fungal infestation |  | completely inhibit fungal infestation | completely inhibit fungal infestation |
| C#CCOc1ccc(CCNC(=O)C(=NSC)c2ccc(Br)cc2)cc1OC [Compound 14.031, 2-(4-bromo-phenyl)-N-[2-(3-methoxy-4-prop-2-ynyloxy-phenyl)-ethyl]-2-methylthioimino-acetamide] | completely inhibit fungal infestation |  | completely inhibit fungal infestation |  |
| CC#COc1ccc(CCNC(=O)C(=NSC)c2ccc(C)cc2)cc1OC [Compound 14.041, N-[2-(3-methoxy-4-prop-ynyloxy-phenyl)-ethyl]-2-methylthioimino-2-(4-tolyl)-acetamide] | completely inhibit fungal infestation |  | completely inhibit fungal infestation | completely inhibit fungal infestation |
| C#CCOc1ccc(CCNC(=O)C(=NSC)c2ccc(OC)cc2)cc1OC [Compound 14.051, 2-(4-methoxy-phenyl)-N-[2-(3-methoxy-4-prop-2-ynyloxy-phenyl)-ethyl]-2-methylthioimino-acetamide] | completely inhibit fungal infestation |  |  |  |
| C#CCOc1ccc(CCNC(=O)C(=NSC)c2ccc(F)cc2)cc1OC [Compound 14.071, 2-(4-fluoro-phenyl)-N-[2-(3-methoxy-4-prop-2-ynyloxy-phenyl)-ethyl]-2-methylthioimino-acetamide] | completely inhibit fungal infestation |  |  |  |
| C#CCOc1ccc(CCNC(=O)C(=NSC)c2ccc3ccccc3c2)cc1OC [Compound 14.121, N-[2-(3-methoxy-4-prop-ynyloxy-phenyl)-ethyl]-2-naphthalen-2-yl-2-methylthioimino-2-acetamide] | completely inhibit fungal infestation |  |  |  |
